This note sets out measurements from patent publication US20200354331A1, “ICARIIN DERIVATIVES” (H. LEE MOFFITT CANCER CENTER AND RESEARCH INSTITUTE, INC., priority 2014, published 2020).

What is called IC50 is the concentration at which inhibition is half-maximal.

Entries after “also recorded” stand apart in the source; their conditions may differ. Like-named read-outs stand apart in the source and are kept apart here.

For data set [1], the system named is Bone marrow. The data set can be described thus: IC50 / toxicity in cells. The data set is classed as cell-based. The settings on record: Mus musculus. How it is done:
(§1) Specifically, BMNCs from three healthy donors were treated with different concentrations of ICA or ICT for 48 hours after which colony formation was assessed using MethoCult H4434 complete medium with cytokines. The mixture was placed in 35-mm culture dishes (1×10^5 cells/each dish) and incubated at 37° C. in 5% CO2 for approximately 7-14 days. After incubation, colonies of CFU-E, BFU-E and CFU-GM were indentified and counted using an inverted light microscope. […] Although, these cells were obtained from spleens, it was also found ICA/ICT has a similar effect on MDSCs isolated from tumor tissue. Here, Gr1^+ cells were isolated from tumors of 4T1 tumor-bearing mice. MDSCs were treated with 20 μM of ICA, ICT, or DMSO for 48 h. Bars represent the relative percentage of MDSC as compared to DMSO treated cells measured by flow cytometry (FIG. 3A). The production of ROS (FIG. 3B) and NO (FIG. 3C) activity of purified MDSC from tumor tissue was also measured.

The target of data set [2] is T1, PP2A (Homo sapiens, UniProt P67775).
T1 construct: endogenous in cells; host or cells: human PBMC
T1 sequence (P67775 whole entry): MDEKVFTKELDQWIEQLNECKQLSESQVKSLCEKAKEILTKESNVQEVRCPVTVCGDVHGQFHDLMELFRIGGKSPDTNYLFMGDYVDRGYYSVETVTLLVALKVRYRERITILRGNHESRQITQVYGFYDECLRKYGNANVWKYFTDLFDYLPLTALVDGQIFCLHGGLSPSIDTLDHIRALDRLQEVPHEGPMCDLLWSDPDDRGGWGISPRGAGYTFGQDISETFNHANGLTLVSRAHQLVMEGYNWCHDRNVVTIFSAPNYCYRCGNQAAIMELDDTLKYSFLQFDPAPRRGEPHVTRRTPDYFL
Put plainly: PP2A activity in PBMC lysates, in vitro phosphatase assay kit. The format is cell-based. The settings on record: 48 hours, 1 μM. As to the method: FIG. 9 depicts the effect of ICA and ICT on the activity of PP2A. Human PBMC were cultured for 48 hours with media, DMSO, 1 μM of ICA or ICT. The cell lysates were used to analyze PP2A activity using a commercial in vitro phosphatase assay kit (Millipore). Error bars represent the SEM of three separate experiments.
To understand if there is a link correlating S100A9/SIGLEC3 and PDE5 activation, SJCRH30 cells were transfected with either vector, S100A9 or SIGLEC 3. Seventy two hours post-transfection cells were lysed and assessed by Western Blot for either PDE5 or its phosphorylated counterpart. […] This represents a new pathway of MDSC activation that can be specifically targeted by ICA, ICT, and their derivatives disclosed herein.

In data set [3] the target is GMP-specific recombinant bovine phosphodiesterase Type V (Bos taurus, UniProt Q28156). Put plainly: PDE5 phosphodiesterase inhibition, PDE-Glo system. The format is biochemical.
For data set [4], the system named is MDSCs isolated from tumors of 4T1 tumor-bearing mice. The data set can be described thus: ROS and NO production of MDSC isolated from tumors. The format is cell-based. The settings on record: MDSCs from tissue of tumor-bearing mice, 20 μM, 48 h. As to the method:
FIGS. 3A-3C depicts the effect of ICA and ICT on expansion of MDSCs isolated from tumor and their ROS and NO production. Gr1^+ cells were isolated from tumors of 4T1 tumor-bearing mice. (FIG. 3A) MDSCs were treated with 20 μM of ICA, ICT, or DMSO for 48 h. Bars represent the relative percentage of MDSC as compared to DMSO treated cells measured by flow cytometry. (FIG. 3B) Production of ROS and (FIG. 3C) NO activity of purified MDSC from tumor tissue.
as §1, with “MDSCs were treated with 20 μM of ICA, ICT, or DMSO for 48 h.” left out

In data set [5] the test system is Gr-1+CD11b+ MDSCs. The data set can be described thus: Circulating Gr-1+CD11b+ MDSC in spleens of 4T1 tumor-bearing mice (flow cytometry). The format is in vivo, BALB/c mice. The settings on record: 100 mg/kg i.p. three times weekly, vehicle 50.28%. As to the method:
FIG. 1 depicts the effects of ICA or ICT on the differentiation of MDSC. MDSC were isolated from spleens of 4T1 tumor-bearing mice. The maturation markers indicated were used to evaluate the differentiation and accumulation of MDSC in tumor bearing mice. Cell phenotype was evaluated by flow cytometry. One of the most striking features of ICA and ICT is their anti-tumorigenic ability in vivo. Seven days post-infection 1 cm diameter 4T1 tumors from 5 mice were established in BALB/c mice. Mice were treated with 100 mg/kg of ICA, ICT or vehicle (i.p.) three times weekly and tumor size (mean and SD) was monitored every 2 to 3 days. The percentages of double-positive Gr-1+CD11b′ MDSCs were determined for spleens of five mice per group. Cell phenotype was evaluated by flow cytometry. […] ICA or ICT on the differentiation of MDSC.
(A flow cytometer gives signals particle by particle.)

In data set [6] the target is T2, PP2A bound to PDE5 (Homo sapiens, UniProt O76074).
T2 construct: Cells were then lysed and PDE5 was immunoprecipitated following a Western Blot with anti-PP2A; endogenous in cells; host or cells: human PBMC
The data set can be described thus: Co-immunoprecipitation of PDE5 with PP2A in PBMC. The data set is classed as cell-based. The settings on record: 48 hours. As to the method: Human PBMC were cultured for 48 hours with media, DMSO or increasing doses of ICT (1, 5, 10, 20 μM respectively). Cells were then lysed and PDE5 was immunoprecipitated following a Western Blot with anti-PP2A. Coomasie blue staining of the membrane is shown as loading control.
To understand if there is a link correlating S100A9/SIGLEC3 and PDE5 activation, SJCRH30 cells were transfected with either vector, S100A9 or SIGLEC 3. Seventy two hours post-transfection cells were lysed and assessed by Western Blot for either PDE5 or its phosphorylated counterpart.

The subject of data set [7] is BMNCs from three healthy donors. Put plainly: Colony formation (CFU-E, BFU-E, CFU-GM) in MethoCult H4434. The format is cell-based. The settings on record: healthy donor BMNCs treated 48 hours, different concentrations. How it is done: FIG. 2 depicts the effect, or lack thereof, of ICA and ICT on hematopoiesis. BMNCs from three healthy donors were treated with ICA or ICT for 48 hours after which colony formation was assessed using MethoCult H4434 complete medium with cytokines. CFU-E, BFU-E and CFU-GM were indentified and counted using an inverted light microscope. Each bar represents the mean results of three individuals with duplicate plates. Results are expressed as means±SD.
as §1, with “MDSCs were treated with 20 μM of ICA, ICT, or DMSO for 48 h.” left out

`COc1ccc(-c2oc3c(CC=C(C)C)c(O[C@@H]4O[C@H](CO)[C@@H](O)[C@H](O)[C@H]4O)cc(O)c3c(=O)c2O[C@@H]2O[C@@H](C)[C@H](O)[C@@H](O)[C@H]2O)cc1` [ICA, Icariin] yielded an IC50 in data set [1] (BMMC) above 100 µM. Moreover, the “phosphatase activity of PP2A” value in data set [2] was “up-regulate the phosphatase activity of PP2A in vitro”. Moreover, the “phosphodiesterase (enzymatic) activity of PDE5” value in data set [3] is “block the phosphodiesterase activity of PDE5; also recorded: inhibit the enzymatic activity of PDE5”. Besides, the “NO and ROS production by MDSCs” value in data set [4] is “inhibit NO and ROS production”. For the same molecule, in data set [5], the “percent of circulating MDSC” value worked out at 33.35%. For the same molecule, in data set [6], the “association of PP2A with PDE5” value is reported as “decreased”. In addition, in data set [7], the “effect on hematopoiesis (colony formation)” value was “do not affect hematopoiesis”.
As to `COc1ccc(-c2oc3c(CCC(C)(C)O)c(O)cc(O)c3c(=O)c2O)cc1` [ICT, 3,5,7-trihydroxy-4′-methoxy-8-(3-hydroxy-3-methylbutyl)-flavone], the IC50 in data set [1] (Bone marrow (bone marrow mononuclear cells, BMMC), read-out: IC50) was above 100 µM. The “phosphatase activity of PP2A” value in data set [2] is on record as “up-regulate the phosphatase activity of PP2A in vitro”. In data set [3], the “phosphodiesterase (enzymatic) activity of PDE5” value is recorded as “block the phosphodiesterase activity of PDE5; also recorded: inhibit the enzymatic activity of PDE5”. Moreover, the “NO and ROS production by MDSCs” value in data set [4] was “inhibit NO and ROS production”. In addition, the “percent of circulating MDSC” value in data set [5] stood at 26.97%. In addition, the “association of PP2A with PDE5” value in data set [6] is “decreased”. Also, in data set [7], the “effect on hematopoiesis (colony formation)” value is on record as “do not affect hematopoiesis”.
